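All cell lines were grown in 96-well plates and treated with compound for 48 hours. GI50 is the concentration that inhibits growth by half.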 The source made the active and inactive calls. Rule as the data show it: active = GI50 up to about 1.1 µM and inactive = higher.
Legend:
Test in all cases: growth of human tumour cells (NCI), 48 h
[1] = tested on: CCRF-CEM
[2] = tested on: UO-31
[3] = tested on: TK-10
[4] = tested on: ACHN
[5] = tested on: SNB-19
[6] = tested on: UACC-257
[7] = tested on: M14
[8] = tested on: OVCAR-4
[9] = tested on: PC-3
[10] = tested on: A549
[11] = tested on: HCC 2998
[12] = tested on: RXF 393
[13] = tested on: NCI-H226
[14] = tested on: MDA-N
[15] = tested on: LOX IMVI
[16] = tested on: HCT-116
[17] = tested on: UACC-62
[18] = tested on: KM12
[19] = tested on: HT-29
[20] = tested on: MDA-MB-231
[21] = tested on: RPMI-8226
[22] = tested on: SK-OV-3
[23] = tested on: OVCAR-5
[24] = tested on: OVCAR-8
[25] = tested on: EKVX
[26] = tested on: CAKI-1
[27] = tested on: MCF7
[28] = tested on: OVCAR-3
[29] = tested on: COLO 205
[30] = tested on: IGROV-1
[31] = tested on: MOLT-4
[32] = tested on: SK-MEL-2
[33] = tested on: NCI-H460
[34] = tested on: Malme-3M
[35] = tested on: NCI/ADR-RES
[36] = tested on: SK-MEL-28
[37] = tested on: SW-620
[38] = tested on: A498
[39] = tested on: NCI-H23
[40] = tested on: HCT-15
[41] = tested on: 786-0
[42] = tested on: HOP-62
[43] = tested on: SF-268
[44] = tested on: HOP-92
[45] = tested on: SF-295
[46] = tested on: NCI-H522
[47] = tested on: U-251
[48] = tested on: T47D
[49] = tested on: SF-539
[50] = tested on: Hs-578T
[51] = tested on: MDA-MB-435
[52] = tested on: SNB-75
[53] = tested on: K562
[54] = tested on: SK-MEL-5
[55] = tested on: DU-145
[56] = tested on: SN12C
[57] = tested on: SR
[58] = tested on: HL-60
[59] = tested on: BT-549

## CN(C)/C=N/Cc1ccc2c(c1)OCO2
[1]
  GI50: > 100 µM (inactive)
[2]
  GI50: > 100 µM (inactive)
[3]
  GI50: > 100 µM (inactive)
[4]
  GI50: > 100 µM (inactive)
[5]
  GI50: > 100 µM (inactive)
[6]
  GI50: > 100 µM (inactive)
[7]
  GI50: > 100 µM (inactive)
[8]
  GI50: > 100 µM (inactive)
[9]
  GI50: > 100 µM (inactive)
[10]
  GI50: > 100 µM (inactive)
[11]
  GI50: > 100 µM (inactive)
[12]
  GI50: > 100 µM (inactive)
[13]
  GI50: > 100 µM (inactive)
[14]
  GI50: > 100 µM (inactive)
[15]
  GI50: > 100 µM (inactive)
[16]
  GI50: > 100 µM (inactive)
[17]
  GI50: > 100 µM (inactive)
[18]
  GI50: > 100 µM (inactive)
[19]
  GI50: > 100 µM (inactive)
[20]
  GI50: > 100 µM (inactive)
[21]
  GI50: > 100 µM (inactive)
[22]
  GI50: > 100 µM (inactive)
[23]
  GI50: > 100 µM (inactive)
[24]
  GI50: > 100 µM (inactive)
[25]
  GI50: > 100 µM (inactive)
[26]
  GI50: > 100 µM (inactive)
[27]
  GI50: > 100 µM (inactive)
[28]
  GI50: > 100 µM (inactive)
[29]
  GI50: > 100 µM (inactive)
[30]
  GI50: > 100 µM (inactive)
[31]
  GI50: > 100 µM (inactive)
[32]
  GI50: > 100 µM (inactive)
[33]
  GI50: > 100 µM (inactive)
[34]
  GI50: > 100 µM (inactive)
[35]
  GI50: > 100 µM (inactive)
[36]
  GI50: > 100 µM (inactive)
[37]
  GI50: > 100 µM (inactive)
[38]
  GI50: > 100 µM (inactive)
[39]
  GI50: > 100 µM (inactive)
[40]
  GI50: > 100 µM
[41]
  GI50: > 100 µM (inactive)
[42]
  GI50: > 100 µM (inactive)
[43]
  GI50: > 100 µM (inactive)
[44]
  GI50: > 100 µM (inactive)
[45]
  GI50: > 100 µM (inactive)
[46]
  GI50: > 100 µM (inactive)
[47]
  GI50: > 100 µM (inactive)
[48]
  GI50: > 100 µM (inactive)
[49]
  GI50: > 100 µM (inactive)
[50]
  GI50: > 100 µM (inactive)
[51]
  GI50: > 100 µM (inactive)
[52]
  GI50: > 100 µM (inactive)
[53]
  GI50: > 100 µM (inactive)
[54]
  GI50: > 100 µM (inactive)
[55]
  GI50: > 100 µM (inactive)
[56]
  GI50: > 100 µM (inactive)
[57]
  GI50: > 100 µM (inactive)

## O=C(/C=N/O)c1c(-c2ccccc2)[nH]c(-c2ccccc2)c1-c1ccccc1
[1]
  GI50: 16.6 µM (inactive)
[2]
  GI50: 14.3 µM (inactive)
[58]
  GI50: 5.98 µM (inactive)
[3]
  GI50: 21.3 µM (inactive)
[4]
  GI50: 16 µM (inactive)
[5]
  GI50: 15.3 µM (inactive)
[6]
  GI50: 16.2 µM (inactive)
[7]
  GI50: 31 µM (inactive)
[8]
  GI50: 13.6 µM (inactive)
[10]
  GI50: 14.1 µM (inactive)
[11]
  GI50: 34 µM (inactive)
[12]
  GI50: 12.5 µM (inactive)
[13]
  GI50: 26.2 µM (inactive)
[15]
  GI50: 10.8 µM (inactive)
[16]
  GI50: 26.2 µM (inactive)
[17]
  GI50: 15.2 µM (inactive)
[18]
  GI50: 13.6 µM (inactive)
[19]
  GI50: 21.9 µM (inactive)
[20]
  GI50: 13.3 µM (inactive)
[21]
  GI50: 5.35 µM (inactive)
[22]
  GI50: 16.1 µM (inactive)
[23]
  GI50: 0.228 µM (active)
[25]
  GI50: 3.71 µM (inactive)
[26]
  GI50: 22.1 µM (inactive)
[27]
  GI50: 15.6 µM (inactive)
[28]
  GI50: 13.1 µM (inactive)
[29]
  GI50: 17.2 µM (inactive)
[59]
  GI50: < 0.01 µM (active)
[30]
  GI50: 13.8 µM (inactive)
[31]
  GI50: 2.37 µM (inactive)
[32]
  GI50: 11.1 µM (inactive)
[33]
  GI50: 16.7 µM (inactive)
[34]
  GI50: 18.3 µM (inactive)
[35]
  GI50: 6.78 µM (inactive)
[36]
  GI50: 17.8 µM (inactive)
[37]
  GI50: 19.8 µM (inactive)
[38]
  GI50: 29.2 µM (inactive)
[39]
  GI50: 7.46 µM (inactive)
[40]
  GI50: 17.9 µM
[41]
  GI50: 54.1 µM (inactive)
[42]
  GI50: 44.4 µM (inactive)
[43]
  GI50: 19.3 µM (inactive)
[44]
  GI50: 14 µM (inactive)
[45]
  GI50: 14.3 µM (inactive)
[46]
  GI50: 13.8 µM (inactive)
[47]
  GI50: 14.5 µM (inactive)
[48]
  GI50: 17.1 µM (inactive)
[49]
  GI50: 13.2 µM (inactive)
[50]
  GI50: 20.9 µM (inactive)
[51]
  GI50: 14.4 µM (inactive)
[52]
  GI50: 18.3 µM (inactive)
[53]
  GI50: 14.1 µM (inactive)
[54]
  GI50: 16.2 µM (inactive)
[55]
  GI50: 0.927 µM (active)
[56]
  GI50: 15.8 µM (inactive)
[57]
  GI50: 0.0481 µM (active)

## O=C1Nc2ccccc2Cn2c1cc1oc(-c3ccccc3)cc12
[1]
  GI50: > 100 µM (inactive)
[58]
  GI50: > 100 µM (inactive)
[3]
  GI50: > 100 µM (inactive)
[4]
  GI50: 37.2 µM (inactive)
[5]
  GI50: 22.5 µM (inactive)
[6]
  GI50: > 100 µM (inactive)
[8]
  GI50: 28.8 µM (inactive)
[9]
  GI50: 57.3 µM (inactive)
[10]
  GI50: 32.4 µM (inactive)
[11]
  GI50: > 100 µM (inactive)
[12]
  GI50: 21.4 µM (inactive)
[14]
  GI50: > 100 µM (inactive)
[15]
  GI50: > 100 µM (inactive)
[17]
  GI50: 34.1 µM (inactive)
[18]
  GI50: 95.1 µM (inactive)
[19]
  GI50: > 100 µM (inactive)
[20]
  GI50: 32.5 µM (inactive)
[22]
  GI50: 28 µM (inactive)
[23]
  GI50: 62.4 µM (inactive)
[24]
  GI50: 31 µM (inactive)
[25]
  GI50: 33.7 µM (inactive)
[26]
  GI50: 30 µM (inactive)
[27]
  GI50: 10.8 µM (inactive)
[28]
  GI50: 19.2 µM (inactive)
[29]
  GI50: > 100 µM (inactive)
[30]
  GI50: 29.8 µM (inactive)
[31]
  GI50: > 100 µM (inactive)
[32]
  GI50: 44.2 µM (inactive)
[33]
  GI50: 61.7 µM (inactive)
[34]
  GI50: 30.3 µM (inactive)
[35]
  GI50: 45.5 µM (inactive)
[36]
  GI50: 63.5 µM (inactive)
[37]
  GI50: > 100 µM (inactive)
[38]
  GI50: 36.5 µM (inactive)
[39]
  GI50: 86.9 µM (inactive)
[40]
  GI50: 88.9 µM
[41]
  GI50: 20.4 µM (inactive)
[42]
  GI50: 21.6 µM (inactive)
[43]
  GI50: 24 µM (inactive)
[44]
  GI50: 31.3 µM (inactive)
[45]
  GI50: 17.7 µM (inactive)
[46]
  GI50: 43.2 µM (inactive)
[47]
  GI50: 16 µM (inactive)
[48]
  GI50: 23.8 µM (inactive)
[49]
  GI50: 29.7 µM (inactive)
[50]
  GI50: 10.9 µM (inactive)
[51]
  GI50: > 100 µM (inactive)
[52]
  GI50: 24.9 µM (inactive)
[53]
  GI50: 50.2 µM (inactive)
[54]
  GI50: 7.57 µM (inactive)
[55]
  GI50: 17.3 µM (inactive)
[56]
  GI50: 27.4 µM (inactive)
[57]
  GI50: > 100 µM (inactive)

From ChEMBL document CHEMBL1201862, “PubChem BioAssay data set” (2004)
